According to article PMC8448819, “The Arabidopsis MIK2 receptor elicits immunity by sensing a conserved signature from phytocytokines and microbes” (Nature Communications, 2021):
No end group written: not given here.

Legend:
[1] = tested on: PEPR1^ECD-MIK2^TK/pepr1,2 transgenic seedlings; assay: Root growth assay, PEPR1^ECD-MIK2^TK/pepr1,2 seedlings; assay type: in vivo, Arabidopsis thaliana; conditions: PEPR1^ECD-MIK2^TK/pepr1,2 compared to WT
Description: The BAK1 (AT4G33430), SERK4 (AT2G13790), BIK1 (AT2G39660), and MIK2 (AT4G08850) coding sequences (CDSs) were amplified by PCR from Col-0 cDNA using the primers containing BamHI at the 5′ end and StuI at the 3′ end. The PCR products were digested by BamHI and StuI, followed by ligation into the pHBT-FLAG or pHBT-HA vector to generate pHBT-35S::BAK1-FLAG, pHBT-35S::SERK4-FLAG, pHBT-35S::BIK1-HA, pHBT-35S::MIK2-HA, and pHBT-35S::MIK2-GFP constructs[24],[41],[62]. MIK2^ECD (residues 1–707) and BAK1^ECD (residues 1–220) were amplified by PCR from Col-0 cDNA and cloned into pFastBac-1 vector with a C-terminal 6× HIS tag[25],[62]. The fusion protein vectors carrying MIK2^ECD or BAK1^ECD were used for insect cell expression. To obtain the binary vector pCAMBIA1300-35S::RLK7, a 2907-bp RLK7 CDS was PCR-amplified from WT cDNA using gene-specific primers with KpnI and SalI at the 5′ and 3′ ends, respectively, followed by KpnI and SalI digestion and ligation into the pCAMBIA1300 vector. […]
Cold stratified seeds were surface-sterilized with 70% (v/v) ethanol for 5 min and were sown on ½MS plates with or without peptides at indicated concentrations. Ten-day-old seedlings grown on plates vertically in a growth chamber were photographed, and the root lengths of seedlings were measured using Image J (http://rsb.info.nih.gov/ij/).

[2] = tested on: mik2-1 and mik2-2 mutant seedlings; assay type: in vivo, Arabidopsis thaliana; conditions: in vivo
[3] = In vitro protein cleavage assay and LC-MS/MS; assay type: biochemical, Arabidopsis thaliana
Procedure: Recombinant HIS-SCOOP12 proteins were expressed in E. coli BL21 strain with an isopropyl β-D-1-thiogalactopyranoside (IPTG)-inducible system and purified with Ni-NTA agarose (QIAGEN, #166048536) in buffer containing 50 mM Tris-HCl pH 7.5 and 300 mM NaCl. For in vitro protein cleavage assay, 5 μg of purified HIS-SCOOP12 proteins were incubated with 10 μL protein extracts isolated from 10-day-old Arabidopsis WT seedlings or protein extraction buffer (50 mM HEPES, pH 7.4, 10 mM EDTA, and 1× protease inhibitor cocktail, Sigma) following a published protocol[36] for 5 h at room temperature with rotation. […] The processed SCOOP12 bands were cut from SDS-PAGE for LC-MS/MS analysis.
The processed SCOOP12 bands were in-gel digested following a published protocol, except that digestion was conducted with Lys-C (Promega, Madison, WI, USA). The digested peptides were desalted using micro ZipTip mini-reverse phase (Millipore). In brief, after wetting (with 50% acetonitrile) and equilibrating a ZipTip (with 0.1% formic acid), the peptides were bound to C-18 material. A subsequent washing step with 0.1% formic acid was followed by a final elution with 60% acetonitrile and 0.1% formic acid. The samples were lyophilized to dryness using a labconco speedvac (Centrivap, Labconco Inc., USA). The resulting peptides were resuspended in 0.1% formic acid for mass spectrometric analysis. The mass spectrometry data acquisition was performed on an EASY-nLC 1200 ultraperformance liquid chromatography system (Thermo Scientific Inc., San Jose, CA) connected to an Orbitrap Q-Exactive HF instrument equipped with a nano-electrospray source (Thermo Scientific Inc., San Jose, CA)[67]. The peptide samples were loaded to a C18 trapping column (75 μm i.d. × 2 cm, Acclaim PepMap® 100 particles with 3 μm size and 100 Å pores) and then eluted using a C18 analytical column (75 μm i.d. × 25 cm, 2 μm particles with 100 Å pore size). […] All MS/MS samples were analyzed using Mascot Daemon (Matrix Science, London, UK; version 2.4.0). […]

[4] = biological target: T1, MIK2^ECD, extracellular LRR domain of MALE DISCOVERER 1-INTERACTING RECEPTOR-LIKE KINASE 2 (Arabidopsis thaliana, UniProt Q8VZG8 44-707); assay: SPR; conditions: both partners purified
T1 construct: also called MIK2^ECD-6×HIS
T1 sequence (looked up): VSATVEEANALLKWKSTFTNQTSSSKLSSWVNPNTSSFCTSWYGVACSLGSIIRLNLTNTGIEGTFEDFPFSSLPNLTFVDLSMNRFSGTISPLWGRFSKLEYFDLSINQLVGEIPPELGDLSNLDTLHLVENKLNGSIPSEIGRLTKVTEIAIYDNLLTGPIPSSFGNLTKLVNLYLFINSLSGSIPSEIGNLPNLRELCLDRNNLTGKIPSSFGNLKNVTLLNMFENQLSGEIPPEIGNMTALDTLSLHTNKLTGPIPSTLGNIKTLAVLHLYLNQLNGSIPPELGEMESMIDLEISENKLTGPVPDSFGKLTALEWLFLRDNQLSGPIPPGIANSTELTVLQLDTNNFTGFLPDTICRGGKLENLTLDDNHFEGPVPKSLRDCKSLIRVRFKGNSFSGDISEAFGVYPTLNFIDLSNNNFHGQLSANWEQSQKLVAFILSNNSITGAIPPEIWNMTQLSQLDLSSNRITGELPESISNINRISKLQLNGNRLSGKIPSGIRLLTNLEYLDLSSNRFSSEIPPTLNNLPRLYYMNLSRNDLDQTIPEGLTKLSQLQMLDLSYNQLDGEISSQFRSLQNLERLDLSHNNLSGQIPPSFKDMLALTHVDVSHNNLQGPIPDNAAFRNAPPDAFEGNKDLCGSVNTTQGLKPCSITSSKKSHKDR

[5] = biological target: T1, MIK2^ECD, extracellular LRR domain of …; assay: ITC; MicroCal ITC200, 25 °C, 200 mM HEPES pH 7.0, 100 mM NaCl; 600 µM peptide injected into 30 µM MIK2^ECD in the cell; conditions: both partners purified

With “ATKVKAKQRGKEKVSSGRPGQHN [Pep1, plant endogenous peptide recognized by PEPR1/PEPR2]” as the molecule, how does the “brown roots and darkened root-hypocotyl junctions” value [1] read?
The value was “brown roots, and darkened root-hypocotyl junctions”.

And the “root growth retardation” value [1]?
Its value is “severe root growth retardation”.

And the “response of mik2-1 to Pep1” value [2]?
The value was “responded to the Pep1 treatment similarly to WT plants”.

Which results are given for “HIS-SCOOP12: recombinant HIS-SCOOP12 proteins expressed in E. coli (LMGSGASGPVRSSQSSQAGGRFNDADPIAIDYGKY; also: His tag (not in given chain); UniProt B3H7I1 44-78, looked up)”?
proteolytic processing by Arabidopsis protein extracts ([3]; 5 μg HIS-SCOOP12, seedling extract, 5 h, room temperature, pH 7.4): proteolytically processed upon incubation with Arabidopsis protein extracts; cleavage site ([3]; Nano-LC-MS/MS): cleaved after arginine 43 (R^43); identified SCOOP12 fragment ([3]; Nano-LC-MS/MS, in-gel Lys-C digestion): from leucine 44 (L^44) to lysine 78 (Y^78)

B1: SCOOP12^SS/AA peptide (peptide)
chain: PVRSAQASQAGGR
modifications: Synthetic peptide. Exact limits are in Supplementary Data 4 (not shown); same conventional 13-mer as m1, with both SxS-motif serines changed to alanine.
Which Kd [4] does the source give for B1 here?
The Kd was 3.48 mM.

B2: SCOOP12 peptide (SERINE-RICH ENDOGENOUS PEPTIDE 12) (peptide)
chain: PVRSSQSSQAGGR
modifications: Synthetic peptide, unlabelled in ITC/SPR; an N-terminal TAMRA version was used for in vivo binding. Exact limits are in Supplementary Data 4 (not shown). Limits taken as the commonly used 13-mer …
Which results are given for B2?
Kd [5]: 3.18 µM; stoichiometry N [5]: ~1; Kd [4]: 0.00178 mM
